Measured values published in patent US7767676B2, “Dihydro-1,3,5-triazine amine derivatives and their therapeutic uses” (Merck Sante, priority 2000, dated 2010).
Where a name gives a salt, the structure may show the parent alone. Read-outs that look alike come from different tables or passages of the source.

Assays:
[1] = system: Maillard reaction of bovine albumin with methylglyoxal; assay: Antiglycation activity: fructosamine assay after incubation of albumin with methylglyoxal; format: biochemical; conditions: compound 10 mM, bovine albumin 6.6 mg/ml, 1 mM methylglyoxal, pH 7.4, 37° C., 6 days; relative to incubation without compound
Description: Study of the Antiglycation Activity
The compounds (I) are also capable of inhibiting the so-called Maillard reactions by “capturing effect” on the α-dicarbonyl-containing derivatives such as glyoxal—this is the antiglycation effect. This Maillard reaction inhibiting effect of the compounds according to the invention was studied in vitro by assaying ketamines (“fructosamines”) produced during the incubation of albumin with methylglyoxal in the presence or otherwise of a compound of formula (I) according to the invention.
A solution of bovine albumin at 6.6 mg/ml in 0.2 M phosphate buffer, pH 7.4, is incubated with 1 mM methylglyoxal in the presence or otherwise of a compound according to the invention at a concentration of 10 mM. The incubation is carried out under sterile conditions at 37° C. for 6 days. At the end of the incubation period, the quantity of ketamines is measure with a commercially available fructosamine assay kit (“FRA” kit, product reference: 0757055, Roche S. A. products) according to the manufacturer's instructions.
By way of example, results obtained under these experimental conditions are assembled in Table IV: level of fructosamine after incubation of the albumin with the methylglyoxal in the presence of compounds (I) according to the invention in relation to the level of fructosamine when albumin is incubated with methylglyoxal in the absence of the compounds (I) according to the invention.

[2] = system: non-insulin-dependent diabetes induced in rats by Streptozotocin; assay: Antidiabetic activity in the Nostz rat (non-insulin-dependent diabetes induced by neonatal streptozotocin), glycaemia after oral treatment; format: in vivo; conditions: diabetic rats, blood 2 h after last administration; for change in vivo at 20 mg/kg: 20 mg/kg/D oral; for change in vivo at 200 mg/kg: 200 mg/kg/D oral
Description: Study of the Antidiabetic Activity in the Nostz Rat
The antidiabetic activity of the compounds of formula (I) administered orally was determined on an experimental model of non-insulin-dependent diabetes induced in rats by Streptozotocin.
The non-insulin-dependent diabetes model is obtained in rats by neonatal injection (on the day of birth) of streptozotocin.
The diabetic rats used were 8 weeks old. The animals were kept, from the day of their birth to the day of the experiment, in an animal house at a controlled temperature of 21 to 22° C. and subjected to a fixed cycle of light (from 7 am to 7 pm) and darkness (from 7 pm to 7 am). Their diet consisted of a maintenance diet, water and food were provided “ab libitum”, with the exception of the 2 hours of fasting preceding the tests when the food is withdrawn (postabsorptive state).
The rats were treated by the oral route for one (D1) or four (D4) days with the product to be tested. Two hours after the last administration of the product and 30 minutes after anaesthetizing the animals with sodium pentobarbital (Nembutal a), 300 μl of blood sample are collected from the end of the tail.
By way of example, results obtained are assembled in Table III.

[3] = 24 h, 1 day of treatment, read-out: percentage variation of glycaemia at D1 relative to D0
[4] = 96 h, 4 days of treatment, read-out: percentage variation of glycaemia at D4 relative to D0

In the case of `COc1ccc(C2N=C(N)NC(N(C)C)=N2)cc1` (stereo not drawn) [Compound 11], the “Reduction in the level of fructosamines (%)” value (“Reduction in the level … (%)” below) [1] is reported as 89%.
`CCC1N=C(N)NC(N(C)C)=N1` (stereo not drawn) [Compound 1, 2-amino-3,6-dihydro-4-dimethylamino-6-ethyl-1,3,5-triazine hydrochloride] gave a change in vivo at 20 mg/kg [2, 3] of -7%, a change in vivo at 200 mg/kg [2, 3] of -13% and a change in vivo at 20 mg/kg [2, 4] of -2%. For the same compound, the change in vivo at 200 mg/kg [2, 4] was -15% and the “Reduction in the level … (%)” value [1] was 62%.
In the case of `CC1N=C(N)NC(N(C)C)=N1` (stereo not drawn) [Compound 18], the change in vivo at 20 mg/kg [2, 3] is reported as -6%, the change in vivo at 200 mg/kg [2, 3] is reported as -29% and the change in vivo at 20 mg/kg [2, 4] is reported as -4%. The change in vivo at 200 mg/kg [2, 4] was -28% and the “Reduction in the level … (%)” value [1] was 69%.
In the case of `CN(C)C1=NC(c2ccccc2)N=C(N)N1` (stereo not drawn) [Compound 10], the “Reduction in the level … (%)” value [1] is reported as 80%.
For `CN(C)C1=NC(Cc2ccccc2)N=C(N)N1` (stereo not drawn) [Compound 37], the change in vivo at 20 mg/kg [2, 3] was -7%, the change in vivo at 200 mg/kg [2, 3] was -10% and the change in vivo at 20 mg/kg [2, 4] was -8%. For the same compound, the change in vivo at 200 mg/kg [2, 4] was -15% and the “Reduction in the level … (%)” value [1] was 65%.
In the case of `CN(C)C1=NC(C(F)(F)F)N=C(N)N1` (stereo not drawn) [Compound 36], the “Reduction in the level … (%)” value [1] is reported as 66%.
For `CN(C)C1=NC(c2ccc(O)cc2)N=C(N)N1` (stereo not drawn) [Compound 13], the “Reduction in the level … (%)” value [1] was 95% and the melting point was > 260 °C.
`CC(C)CC1N=C(N)NC(N(C)C)=N1` (stereo not drawn) [Compound 43] showed a change in vivo at 20 mg/kg [2, 3] of -4%, a change in vivo at 200 mg/kg [2, 3] of -12% and a change in vivo at 20 mg/kg [2, 4] of -16%. The change in vivo at 200 mg/kg [2, 4] was -17% and the “Reduction in the level … (%)” value [1] was 68%.
For `CN(C)C1=NC(c2ccc(O)cc2)N=C(N)N1` (stereo not drawn) [Compound 12], the “Reduction in the level … (%)” value [1] was 90%.
In the case of `CN(C)C1=NC(C2CCCCC2)N=C(N)N1` (stereo not drawn) [Compound 34], the change in vivo at 20 mg/kg [2, 3] is reported as -5%, the change in vivo at 200 mg/kg [2, 3] is reported as -6% and the change in vivo at 20 mg/kg [2, 4] is reported as -15%. The change in vivo at 200 mg/kg [2, 4] was -21% and the “Reduction in the level … (%)” value [1] was 64%.
`CN(C)C1=NC(c2ccco2)N=C(N)N1` (stereo not drawn) [Compound 40] showed a change in vivo at 20 mg/kg [2, 3] of -8%, a change in vivo at 200 mg/kg [2, 3] of -18% and a change in vivo at 20 mg/kg [2, 4] of -12%. For the same compound, the change in vivo at 200 mg/kg [2, 4] was -18% and the “Reduction in the level … (%)” value [1] was 66%.
With `CN(C)C1=NC(C2CC=CCC2)N=C(N)N1` (stereo not drawn) [Compound 45] the “Reduction in the level … (%)” value [1] was 67%.
In the case of `CN(C)C1=NCN=C(N)N1` [Compound 33], the change in vivo at 20 mg/kg [2, 3] is reported as -7%, the change in vivo at 200 mg/kg [2, 3] is reported as -9% and the change in vivo at 20 mg/kg [2, 4] is reported as -6%. For the same compound, the change in vivo at 200 mg/kg [2, 4] was -14% and the “Reduction in the level … (%)” value [1] was 79%.
